Laboratory results as given in PubChem BioAssay AID2060495 (Molecular Pharmacology Branch, DTP, NCI, 2025).

Test system: 521955-158-R2-J5-PDC complex spheroid viability
Experiment: Anticancer human tumor 521955-158-R2-J5-PDC patient-derived pancreatic carcinoma cell line growth inhibition [GQUAD]
Conditions: for IC50: curve of first compound; for viability, T/C: stronger effect = lower value
Method in brief: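 Viability of tumor cells grown as complex spheroids with endothelial and stromal cells, exposed to drug combinations. Top concentration at or near clinical Cmax (else 10 microM), diluted in half-log increments.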

[1] = second compound 0.0316 µM, first compound 0.0316 µM
[2] = second compound 0.0316 µM, first compound 0.1 µM
[3] = second compound 0.0316 µM, first compound 0.316 µM
[4] = second compound 0.0316 µM, first compound 1 µM
[5] = second compound 0.0316 µM, first compound 3.16 µM
[6] = second compound 0.0316 µM, first compound 10 µM
[7] = second compound 0.1 µM, first compound 0.0316 µM
[8] = second compound 0.1 µM, first compound 0.1 µM
[9] = second compound 0.1 µM, first compound 0.316 µM
[10] = second compound 0.1 µM, first compound 1 µM
[11] = second compound 0.1 µM, first compound 3.16 µM
[12] = second compound 0.1 µM, first compound 10 µM
[13] = second compound 0.316 µM, first compound 0.0316 µM
[14] = second compound 0.316 µM, first compound 0.1 µM
[15] = second compound 0.316 µM, first compound 0.316 µM
[16] = second compound 0.316 µM, first compound 1 µM
[17] = second compound 0.316 µM, first compound 3.16 µM
[18] = second compound 0.316 µM, first compound 10 µM
[19] = second compound 1 µM, first compound 0.0316 µM
[20] = second compound 1 µM, first compound 0.1 µM
[21] = second compound 1 µM, first compound 0.316 µM
[22] = second compound 1 µM, first compound 1 µM
[23] = second compound 1 µM, first compound 3.16 µM
[24] = second compound 1 µM, first compound 10 µM
[25] = second compound 3.16 µM, first compound 0.0316 µM
[26] = second compound 3.16 µM, first compound 0.1 µM
[27] = second compound 3.16 µM, first compound 0.316 µM
[28] = second compound 3.16 µM, first compound 1 µM
[29] = second compound 3.16 µM, first compound 3.16 µM
[30] = second compound 3.16 µM, first compound 10 µM
[31] = second compound 10 µM, first compound 0.0316 µM
[32] = second compound 10 µM, first compound 0.1 µM
[33] = second compound 10 µM, first compound 0.316 µM
[34] = second compound 10 µM, first compound 1 µM
[35] = second compound 10 µM, first compound 3.16 µM
[36] = second compound 10 µM, first compound 10 µM
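Note: spheroids exposed to agents for one week before reading.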
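Throughout, for viability, T/C: 100% = DMSO vehicle control viability.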

Work on C=CCn1c(=O)c2cnc(Nc3ccc(N4CCN(C)CC4)cc3)nc2n1-c1cccc(C(C)(C)O)n1 + CN(C)c1ccc(Nc2c3ccc(NC(=O)CCN4CCCC4)cc3nc3cc(NC(=O)CCN4CCCC4)ccc23)cc1 yielded an IC50 (second compound 0.0316 µM) of 189 nM, an IC50 (second compound 0.1 µM) of 208 nM and an IC50 (second compound 0.316 µM) of 188 nM. It also gave an IC50 (second compound 1 µM) of 207 nM, an IC50 (second compound 3.16 µM) of 201 nM and an IC50 (second compound 10 µM) of 401 nM. The viability, T/C [1] was 112%, the viability, T/C [2] was 76.5% and the viability, T/C [3] was 28.2%. For the same compound, the viability, T/C [4] was 16.8%, the viability, T/C [5] was 11.2% and the viability, T/C [6] was 13.4%. The viability, T/C [7] was 107%, the viability, T/C [8] was 85.7% and the viability, T/C [9] was 29.5%. For the same compound, the viability, T/C [10] was 15.5%, the viability, T/C [11] was 14.3% and the viability, T/C [12] was 12.2%. It also gave a viability, T/C [13] of 82.6%, a viability, T/C [14] of 80.7% and a viability, T/C [15] of 24.8%. For the same compound, the viability, T/C [16] was 11.6%, the viability, T/C [17] was 14% and the viability, T/C [18] was 15.2%. It also gave a viability, T/C [19] of 90.5%, a viability, T/C [20] of 85.2% and a viability, T/C [21] of 29.5%. The viability, T/C [22] was 15.9%, the viability, T/C [23] was 13.4% and the viability, T/C [24] was 16.2%. For the same compound, the viability, T/C [25] was 84.6%, the viability, T/C [26] was 74.4% and the viability, T/C [27] was 33.7%. For the same compound, the viability, T/C [28] was 23.3%, the viability, T/C [29] was 18.6% and the viability, T/C [30] was 13.5%. The viability, T/C [31] was 65.1%, the viability, T/C [32] was 67.6% and the viability, T/C [33] was 53.3%. The viability, T/C [34] was 31.6%, the viability, T/C [35] was 7.79% and the viability, T/C [36] was 1.53%.
CC(C)(O)C1CCC(Nc2ccc3ncc(-c4cccc(C(F)(F)F)c4)n3n2)CC1 (stereo unspecified) + CN(C)c1ccc(Nc2c3ccc(NC(=O)CCN4CCCC4)cc3nc3cc(NC(=O)CCN4CCCC4)ccc23)cc1 showed an IC50 (second compound 0.0316 µM) of 2060 nM, an IC50 (second compound 0.1 µM) of 2010 nM and an IC50 (second compound 0.316 µM) of 2050 nM. It also gave an IC50 (second compound 1 µM) of 2010 nM, an IC50 (second compound 3.16 µM) of 1800 nM and an IC50 (second compound 10 µM) of 1280 nM. The viability, T/C [1] was 102%, the viability, T/C [2] was 107% and the viability, T/C [3] was 105%. For the same compound, the viability, T/C [4] was 111%, the viability, T/C [5] was 13.1% and the viability, T/C [6] was 19.7%. The viability, T/C [7] was 101%, the viability, T/C [8] was 103% and the viability, T/C [9] was 98.5%. It also gave a viability, T/C [10] of 117%, a viability, T/C [11] of 10.4% and a viability, T/C [12] of 18.7%. For the same compound, the viability, T/C [13] was 106%, the viability, T/C [14] was 88% and the viability, T/C [15] was 113%. It also gave a viability, T/C [16] of 113%, a viability, T/C [17] of 16.1% and a viability, T/C [18] of 17.5%. For the same compound, the viability, T/C [19] was 95.4%, the viability, T/C [20] was 107% and the viability, T/C [21] was 95.8%. For the same compound, the viability, T/C [22] was 116%, the viability, T/C [23] was 15.1% and the viability, T/C [24] was 13.6%. The viability, T/C [25] was 82%, the viability, T/C [26] was 87.3% and the viability, T/C [27] was 79.2%. It also gave a viability, T/C [28] of 99.5%, a viability, T/C [29] of 13.8% and a viability, T/C [30] of 15%. The viability, T/C [31] was 70.4%, the viability, T/C [32] was 73.1% and the viability, T/C [33] was 64.6%. For the same compound, the viability, T/C [34] was 62.2%, the viability, T/C [35] was 6.61% and the viability, T/C [36] was 1.12%.
With CCCS(=O)(=O)Nc1ccc(F)c(C(=O)c2c[nH]c3ncc(-c4ccc(Cl)cc4)cc23)c1F + CN(C)c1ccc(Nc2c3ccc(NC(=O)CCN4CCCC4)cc3nc3cc(NC(=O)CCN4CCCC4)ccc23)cc1 the IC50 (second compound 0.0316 µM) was over 10000 nM, the IC50 (second compound 0.1 µM) was over 10000 nM and the IC50 (second compound 0.316 µM) was over 10000 nM. The IC50 (second compound 1 µM) was over 10000 nM, the IC50 (second compound 3.16 µM) was 6690 nM and the IC50 (second compound 10 µM) was 3720 nM. It also gave a viability, T/C [1] of 124%, a viability, T/C [2] of 89.2% and a viability, T/C [3] of 80.7%. It also gave a viability, T/C [4] of 118%, a viability, T/C [5] of 271% and a viability, T/C [6] of 106%. The viability, T/C [7] was 102%, the viability, T/C [8] was 84% and the viability, T/C [9] was 72.4%. The viability, T/C [10] was 109%, the viability, T/C [11] was 264% and the viability, T/C [12] was 106%. The viability, T/C [13] was 95.5%, the viability, T/C [14] was 90.1% and the viability, T/C [15] was 92.5%. For the same compound, the viability, T/C [16] was 104%, the viability, T/C [17] was 248% and the viability, T/C [18] was 98.3%. The viability, T/C [19] was 95.4%, the viability, T/C [20] was 76.4% and the viability, T/C [21] was 76.8%. For the same compound, the viability, T/C [22] was 171%, the viability, T/C [23] was 251% and the viability, T/C [24] was 85.2%. It also gave a viability, T/C [25] of 73%, a viability, T/C [26] of 83.6% and a viability, T/C [27] of 61%. The viability, T/C [28] was 111%, the viability, T/C [29] was 174% and the viability, T/C [30] was 22.9%. The viability, T/C [31] was 69.9%, the viability, T/C [32] was 68.4% and the viability, T/C [33] was 111%. For the same compound, the viability, T/C [34] was 100%, the viability, T/C [35] was 58% and the viability, T/C [36] was 2.26%.
